Test results published in article PMC6761801 (ACS Omega, 2019).
One block for each molecule: values may come before it. Ends that are not written are not given here.

Tests used:
Experiment in all cases: MIC, broth microdilution
[1] = system: Bacillus subtilis (KCTC 3068); type: cell-based; settings: B. subtilis, 2 × 10^6 CFU/mL
[2] = system: Enterococcus faecalis (KCTC 2011); type: cell-based; settings: E. faecalis, 2 × 10^6 CFU/mL
[3] = system: Proteus vulgaris (KCTC 2433); type: cell-based; settings: P. vulgaris, 2 × 10^6 CFU/mL
[4] = system: Staphylococcus epidermidis (KCTC 1917); type: cell-based; settings: S. epidermidis, 2 × 10^6 CFU/mL
[5] = system: Salmonella typhimurium (KCTC 1926); type: cell-based; settings: S. typhimurium, 2 × 10^6 CFU/mL
E. coli (KCTC 1682) = type: cell-based, Escherichia coli; settings: 2 × 10^6 CFU/mL
S. aureus (KCTC 1621) = type: cell-based, Staphylococcus aureus; settings: 2 × 10^6 CFU/mL
[6] = system: Pseudomonas aeruginosa (KCTC 1637); type: cell-based; settings: P. aeruginosa, 2 × 10^6 CFU/mL
[7] = in the presence of 16 μM R9 (+R9)

antimicrobial activity (MIC) ([1]; peptide alone (−R9)): > 128 µM
Molecule: N=C(N)NCCC[C@H](NC(=O)[C@H](CCCNC(=N)N)NC(=O)[C@H](CCCNC(=N)N)NC(=O)[C@H](CCCNC(=N)N)NC(=O)[C@H](CCCNC(=N)N)NC(=O)[C@H](CCCNC(=N)N)NC(=O)[C@H](CCCNC(=N)N)NC(=O)[C@H](CCCNC(=N)N)NC(=O)[C@@H](N)CCCNC(=N)N)C(N)=O [R9]

Molecule: KWKKLLKKLLKLLKK-NH2 [M15]
antimicrobial activity (MIC) [2, 7]: 8 µM
antimicrobial activity (MIC) ([2]; peptide alone (−R9)): 16 µM
antimicrobial activity (MIC) [3, 7]: 32/32 μM
antimicrobial activity (MIC) ([3]; peptide alone (−R9)): 32/32 μM
antimicrobial activity (MIC) [4, 7]: 16 µM
antimicrobial activity (MIC) ([4]; peptide alone (−R9)): 16 to 32 µM
antimicrobial activity (MIC) [5, 7]: 32/32 μM
antimicrobial activity (MIC) ([5]; peptide alone (−R9)): 32/32 μM
antimicrobial activity (MIC) [1, 7]: 8–16/8–16 μM
antimicrobial activity (MIC) ([1]; peptide alone (−R9)): 8–16/8–16 μM
antimicrobial activity (MIC) (E. coli (KCTC 1682); [7]): 16 µM
antimicrobial activity (MIC) (E. coli (KCTC 1682); peptide alone (−R9)): 16 to 32 µM
antimicrobial activity (MIC) (S. aureus (KCTC 1621); [7]): 8/8 μM
antimicrobial activity (MIC) (S. aureus (KCTC 1621); peptide alone (−R9)): 8/8 μM
antimicrobial activity (MIC) [6, 7]: 32/32 μM
antimicrobial activity (MIC) ([6]; peptide alone (−R9)): 32/32 μM

Molecule: RRRRRRRRRGGGGIGKWLHSAKKFGKAFVGEIMNS-NH2 [R9-magainin]
antimicrobial activity (MIC) ([2]; peptide alone (−R9)): 4 µM
antimicrobial activity (MIC) ([3]; peptide alone (−R9)): 4 to 8 µM
antimicrobial activity (MIC) ([4]; peptide alone (−R9)): 4 to 8 µM
antimicrobial activity (MIC) ([5]; peptide alone (−R9)): 1 to 2 µM
antimicrobial activity (MIC) ([1]; peptide alone (−R9)): 2 to 4 µM
antimicrobial activity (MIC) (E. coli (KCTC 1682); peptide alone (−R9)): 2 to 4 µM
antimicrobial activity (MIC) (S. aureus (KCTC 1621); peptide alone (−R9)): 8 µM
antimicrobial activity (MIC) ([6]; peptide alone (−R9)): 4 µM
